Data taken from patent publication US20260335453A1, “ISOINDOLINONE-GLUTARIMIDE ANTIBODY CONJUGATES, AND USES THEREOF” (FIREFLY BIO, INC., priority 2023, published 2026).

How the values were obtained:
CAL51 cells [1] = experiment: Cell proliferation (Cell Titer Glow), CAL51; assay type: cell-based; conditions: Homo sapiens, CAL-51; IG compounds, cell killing, 72 h
Description: Exemplary isoindolinone-glutarimide (IG) compounds of Table 1a, 1b and 1c were prepared and characterized according to the Examples herein. Certain exemplary IG compounds of(Table 1a were tested for their effects in inhibiting cellular proliferation, including CAL1 WSU-DLCL2, NCI-N87 and SKBR3. CAL51 is a human breast adenocarcinoma cell line with triple-negative status for expression of estrogen, progesterone and HER2 receptors. WSU-DLCL2 is a human B-Cell non-Hodgkin lymphoma cell line that expresses high levels of CD22. NCI-N87 is a human epithelial cell line established from a gastric carcinoma; SKBR3 is a human epithelial cell line established from a breast adenocarcinoma; both NCI-N87 and SKBR3 cell lines express high levels of HER2 receptor. […]
One day prior to treatment with compounds or IGAC, cells were plated in white 96-well plates (SKBR: 3000 cells/well; CAL-51: 4000 cells/well). Compounds or ADCs were added in a serial-dilution manner reaching the indicated concentrations. Plates were incubated at 37 degrees for 96h (ADCs) or 72h (compounds) whereafter a 1:10 dilution of Cell Titer Glow was used to measure relative cell numbers after 10 min of incubation at room temperature.

CAL51 cells [2] = experiment: Degradation assay evaluated by immunofluorescence staining, CAL51; assay type: cell-based, human; conditions: for Dmax / DC50: Homo sapiens, CAL-51, CAL51, 6 h; for Dmax (%) CAL51: CAL51, 6 h
Description: One day prior to treatment with compounds, black 96 well plates were coated with fibronectin (0.2 μg/ml in PBS) for 45 min at room temperature and subsequently washed with PBS. CAL-51 or SKBR3 cells were seeded at 30K cells/well (1001) and incubated overnight at 37° C. whereafter compounds were added reaching indicated concentrations. 6 h after treatment the medium was removed, cells were washed with PBS and fixed with 10% formalin for 20 mins at room temperature. Following two PBS washes (150 μl), cells were permeabilized in 0.1% Triton X-100 in PBS for 8 mins at room temperature and subsequently washed again twice with PBS. Cells were blocked thereafter with 1% BSA in PBS for 45 mins. Primary antibody was diluted in blocking buffer and incubated with the cells overnight at 4° C. After three washes with PBS, cells were incubated with secondary antibody for 1 h at RT, washed and subsequently images were taken on an Operetta High-Content Imager.
For the determination of the DC50, a custom algorithm implemented in the PerkinElmer image analysis software Harmony-Acapella® was used.

Row | DC50 (CAL51 cells [2]) | SMILES | IC50 (CAL51 cells [1]) | Dmax (CAL51 cells [2]) | Dmax (%) CAL51 (CAL51 cells [2])
1 | – | O=C1CCC(N2C(=O)c3cc(O)c(NS(=O)(=O)c4ccccc4OC(F)(F)F)cc3C2=O)C(=O)N1 (stereo not drawn) [IG-46, N-(2-(2,6-dioxopiperidin-3-yl)-6-hydroxy-1,3-dioxoisoindolin-5-yl)-2-(trifluoromethoxy)benzenesulfonamide] | > 10 µM | – | –
2 | – | Cc1ccc(NC(=O)OCc2ccc3c(c2O)CN(C2CCC(=O)NC2=O)C3=O)cc1Cl (stereo not drawn) [IG-33, (2-(2,6-dioxopiperidin-3-yl)-4-hydroxy-1-oxoisoindolin-5-yl)methyl (3-chloro-4-methylphenyl)carbamate] | > 10 µM | – | –
3 | – | O=C1CCC(N2Cc3c(Nc4ccnc(Nc5ccc6c(c5)CCC6)n4)ccc(O)c3C2=O)C(=O)N1 (stereo not drawn) [IG-44, 3-(4-((2-((2,3-dihydro-1H-inden-5-yl)amino)pyrimidin-4-yl)amino)-7-hydroxy-1-oxoisoindolin-2-yl)piperidine-2,6-dione] | > 10 µM | – | –
4 | – | CNCCOCCc1ccc(NC(=O)NCc2ccc3c(c2)CN(C2CCC(=O)NC2=O)C3=O)cc1O (stereo not drawn) [IG-14, 1-((2-(2,6-dioxopiperidin-3-yl)-1-oxoisoindolin-5-yl)methyl)-3-(3-hydroxy-4-(2-(2-(methylamino)ethoxy)ethyl)phenyl)urea] | > 10 µM | 22.7 ± 3.34% | –
5 | – | O=C1CCC(N2C(=O)c3cc(NS(=O)(=O)c4ccccc4OC(F)(F)F)cc(O)c3C2=O)C(=O)N1 (stereo not drawn) [IG-34, N-(2-(2,6-dioxopiperidin-3-yl)-7-hydroxy-1,3-dioxoisoindolin-5-yl)-2-(trifluoromethoxy)benzenesulfonamide] | > 10 µM | – | –
6 | – | CNc1cc2c(cc1CNC(=O)Nc1ccc(C)c(Cl)c1)CN(C1CCC(=O)NC1=O)C2=O (stereo not drawn) [IG-45, 1-(3-chloro-4-methylphenyl)-3-((2-(2,6-dioxopiperidin-3-yl)-6-(methylamino)-1-oxoisoindolin-5-yl)methyl)urea] | > 10 µM | – | –
7 | – | O=C1CCC(N2Cc3c(Nc4ccnc(Cc5ccc6c(c5)CCC6)n4)cccc3C2=O)C(=O)N1 (stereo not drawn) [IG-19, 3-(4-((2-((2,3-dihydro-1H-inden-5-yl)methyl)pyrimidin-4-yl)amino)-1-oxoisoindolin-2-yl)piperidine-2,6-dione] | > 10 µM | – | Not active
8 | – | CNCCOCCc1ccc(NC(=O)OCc2ccc3c(c2)CN(C2CCC(=O)NC2=O)C3=O)cc1Cl (stereo not drawn) [IG-4] | > 10 µM | 17.3 ± 0.107% | –
9 | – | Nc1ccc2c(c1OS(=O)(=O)c1ccccc1OC(F)(F)F)C(=O)N(C1CCC(=O)NC1=O)C2=O (stereo not drawn) [IG-29, 5-amino-2-(2,6-dioxopiperidin-3-yl)-1,3-dioxoisoindolin-4-yl 2-(trifluoromethoxy)benzenesulfonate] | > 10 µM | – | –
10 | – | Cc1ccc(NC(=O)NCc2ccc3c(c2O)CN(C2CCC(=O)NC2=O)C3=O)cc1O (stereo not drawn) [IG-27, 1-((2-(2,6-dioxopiperidin-3-yl)-4-hydroxy-1-oxoisoindolin-5-yl)methyl)-3-(3-hydroxy-4-methylphenyl)urea] | > 10 µM | – | –
11 | – | CC(C)(C)c1ccc(NC(=O)NCc2ccc3c(c2O)CN(C2CCC(=O)NC2=O)C3=O)cc1 (stereo not drawn) [IG-26, 1-(4-(tert-butyl)phenyl)-3-((2-(2,6-dioxopiperidin-3-yl)-4-hydroxy-1-oxoisoindolin-5-y1)methyl)urea] | > 10 µM | 22.1% | –
12 | – | Cc1ccc(NC(=O)NCc2ccc3nnn(C4CCC(=O)NC4=O)c(=O)c3c2)cc1O (stereo not drawn) [IG-35, 1-((3-(2,6-dioxopiperidin-3-yl)-4-oxo-3,4-dihydrobenzo[d][1,2,3]triazin-6-yl)methyl)-3-(3-hydroxy-4-methylphenyl)urea] | > 10 µM | – | –
13 | – | CNCCOCCc1ccc(NC(=O)NCc2ccc3c(c2O)CN(C2CCC(=O)NC2=O)C3=O)cc1Cl (stereo not drawn) [IG-53, 1-(3-chloro-4-(2-(2-(methylamino)ethoxy)ethyl)phenyl)-3-((2-(2,6-dioxopiperidin-3-yl)-4-hydroxy-1-oxoisoindolin-5-yl)methyl)urea] | > 30 µM | – | –
14 | 1410 nM | CNCCOCCc1ccc(NC(=O)NCc2ccc3c(c2)CN(C2CCC(=O)NC2=O)C3=O)cc1C(C)C (stereo not drawn) [IG-5] | 6.86 µM | 64.6 ± 2.56% | –
15 | – | Cc1ccc(NC(=O)OCc2ccc3c(c2)CN(C2CCC(=O)NC2=O)C3=O)cc1O (stereo not drawn) [IG-13, (2-(2,6-dioxopiperidin-3-yl)-1-oxoisoindolin-5-yl)methyl (3-hydroxy-4-methylphenyl)carbamate] | 3.04 µM | 38.8 ± 1.98% | –
16 | 834 ± 125 nM | CNCCOCCc1ccc(NC(=O)NCc2ccc3c(c2)CN(C2CCC(=O)NC2=O)C3=O)cc1SC (stereo not drawn) [IG-6, 1-((2-(2,6-dioxopiperidin-3-yl)-1-oxoisoindolin-5-yl)methyl)-3-(4-(2-(2-(methylamino)ethoxy)ethyl)-3-(methylthio)phenyl)urea] | 7.51 µM | 73.3 ± 9.98% | –
17 | – | O=C1CCC(N2Cc3c(ccc(CNC(=O)Nc4cccc(S(F)(F)(F)(F)F)c4)c3O)C2=O)C(=O)N1 (stereo not drawn) [IG-43, 1-((2-(2,6-dioxopiperidin-3-yl)-4-hydroxy-1-oxoisoindolin-5-yl)methyl)-3-(3-(pentafluoro-l6-sulfaneyl)phenyl)urea] | 0.472 µM | – | –
18 | – | CNCCOCCc1ccc(NC(=O)NCc2ccc3c(c2)C(=O)N(C2CCC(=O)NC2=O)C3)cc1Cl (stereo not drawn) [IG-20, 1-(3-chloro-4-(2-(2-(methylamino)ethoxy)ethyl)phenyl)-3-((2-(2,6-dioxopiperidin-3-yl)-3-oxoisoindolin-5-yl)methyl)urea] | > 10 µM | – | Not active
19 | 157 ± 46.5 nM | O=C1CCC(N2C(=O)c3ccc(NS(=O)(=O)c4ccccc4OC(F)(F)F)cc3C2=O)C(=O)N1 (stereo not drawn) [IG-9, N-(2-(2,6-dioxopiperidin-3-yl)-1,3-dioxoisoindolin-5-yl)-2-(trifluoromethoxy)benzenesulfonamide] | 6.49 µM | 83.8 ± 5.5% | –
20 | – | Nc1ccc(OS(=O)(=O)c2ccccc2OC(F)(F)F)c2c1C(=O)N(C1CCC(=O)NC1=O)C2=O (stereo not drawn) [IG-30, 7-amino-2-(2,6-dioxopiperidin-3-yl)-1,3-dioxoisoindolin-4-yl 2-(trifluoromethoxy)benzenesulfonate] | > 10 µM | – | –
21 | – | CC(C)(C)c1ccc(NC(=O)NCc2ccc3c(c2O)CN(C2CCC(=O)NC2=O)C3=O)cc1Cl (stereo not drawn) [IG-48, 1-(4-(tert-butyl)-3-chlorophenyl)-3-((2-(2,6-dioxopiperidin-3-yl)-4-hydroxy-1-oxoisoindolin-5-yl)methyl)urea] | 0.05 µM | – | –
22 | – | Cc1ccc(NC(=O)CCc2ccc3c(c2)CN(C2CCC(=O)NC2=O)C3=O)cc1O (stereo not drawn) [IG-10, 3-(2-(2,6-dioxopiperidin-3-yl)-1-oxoisoindolin-5-yl)-N-(3-hydroxy-4-methylphenyl)propanamide] | > 10 µM | 25.1 ± 3.27% | –
23 | 174 ± 106 nM | Cc1ccc(NC(=O)NCc2ccc3c(c2)C(=O)N(C2CCC(=O)NC2=O)C3)cc1Cl (stereo not drawn) [IG-16, 1-(3-chloro-4-methylphenyl)-3-((2-(2,6-dioxopiperidin-3-yl)-3-oxoisoindolin-5-yl)methyl)urea] | 0.444 µM | 91.7 ± 5.22% | –
24 | 28.9 nM | CC(C)(C)c1cccc(NC(=O)NCc2ccc3c(c2O)CN(C2CCC(=O)NC2=O)C3=O)c1 (stereo not drawn) [IG-25, 1-(3-(tert-butyl)phenyl)-3-((2-(2,6-dioxopiperidin-3-yl)-4-hydroxy-1-oxoisoindolin-5-y1)methyl)urea] | 0.0432 µM | 89.6% | –
25 | – | O=C1CCC(N2Cc3cc(CNC(=O)Nc4ccc(CCOCCN5CCOCC5)c(O)c4)ccc3C2=O)C(=O)N1 (stereo not drawn) [IG-32, 1-((2-(2,6-dioxopiperidin-3-yl)-1-oxoisoindolin-5-yl)methyl)-3-(3-hydroxy-4-(2-(2-morpholinoethoxy)ethyl)phenyl)urea] | > 10 µM | – | –
26 | – | Cc1ccc(NC(=O)NCc2cc(O)c3c(c2)CN(C2CCC(=O)NC2=O)C3=O)cc1Cl (stereo not drawn) [IG-24, 1-(3-chloro-4-methylphenyl)-3-((2-(2,6-dioxopiperidin-3-yl)-7-hydroxy-1-oxoisoindolin-5-yl)methyl)urea] | 0.412 µM | – | –
27 | – | CNc1c(CNC(=O)Nc2ccc(C)c(Cl)c2)ccc2c1CN(C1CCC(=O)NC1=O)C2=O (stereo not drawn) [IG-31, 1-(3-chloro-4-methylphenyl)-3-((2-(2,6-dioxopiperidin-3-yl)-4-(methylamino)-1-oxoisoindolin-5-yl)methyl)urea] | > 10 µM | 18.6% | –
28 | – | O=C1CCC(N2Cc3c(ccc(CNC(=O)Nc4ccc(Br)c(Br)c4)c3O)C2=O)C(=O)N1 (stereo not drawn) [IG-47, 1-(3,4-dibromophenyl)-3-((2-(2,6-dioxopiperidin-3-yl)-4-hydroxy-1-oxoisoindolin-5-yl)methyl)urea] | 1.08 µM | – | –
29 | – | O=C1CCC(N2Cc3cc(NS(=O)(=O)c4ccccc4OC(F)(F)F)ccc3C2=O)C(=O)N1 (stereo not drawn) [IG-11, N-(2-(2,6-dioxopiperidin-3-yl)-1-oxoisoindolin-5-yl)-2-(trifluoromethoxy) benzenesulfonamide] | > 10 µM | 42 ± 9.54% | –
